{"source": "PubChem BioAssay (NCI)", "experiment_in_all_cases": "NCI tumour cell line growth inhibition, 48 h", "key": {"A498 renal": {"tested_on": "A498 renal"}, "A549 NSCLC": {"tested_on": "A549 NSCLC"}, "CAKI-1 renal": {"tested_on": "CAKI-1 renal"}, "CCRF-CEM leukemia": {"tested_on": "CCRF-CEM leukemia"}, "COLO 205 colon": {"tested_on": "COLO 205 colon"}, "DLD-1 colon": {"tested_on": "DLD-1 colon"}, "DMS 114 small cell lung": {"tested_on": "DMS 114 small cell lung"}, "EKVX NSCLC": {"tested_on": "EKVX NSCLC"}, "HCC-2998 colon": {"tested_on": "HCC-2998 colon"}, "HCT-116 colon": {"tested_on": "HCT-116 colon"}, "HCT-15 colon": {"tested_on": "HCT-15 colon"}, "HL-60(TB) leukemia": {"tested_on": "HL-60(TB) leukemia"}, "HOP-18 NSCLC": {"tested_on": "HOP-18 NSCLC"}, "HOP-62 NSCLC": {"tested_on": "HOP-62 NSCLC"}, "HOP-92 NSCLC": {"tested_on": "HOP-92 NSCLC"}, "HT29 colon": {"tested_on": "HT29 colon"}, "IGROV1 ovarian": {"tested_on": "IGROV1 ovarian"}, "K-562 leukemia": {"tested_on": "K-562 leukemia"}, "KM12 colon": {"tested_on": "KM12 colon"}, "LOX IMVI melanoma": {"tested_on": "LOX IMVI melanoma"}, "M19-MEL melanoma": {"tested_on": "M19-MEL melanoma"}, "MALME-3M melanoma": {"tested_on": "MALME-3M melanoma"}, "MCF7 breast": {"tested_on": "MCF7 breast"}, "MOLT-4 leukemia": {"tested_on": "MOLT-4 leukemia"}, "NCI-H226 lung": {"tested_on": "NCI-H226 lung"}, "NCI-H23 lung": {"tested_on": "NCI-H23 lung"}, "NCI-H460 lung": {"tested_on": "NCI-H460 lung"}, "NCI-H522 lung": {"tested_on": "NCI-H522 lung"}, "NCI/ADR-RES ovarian": {"tested_on": "NCI/ADR-RES ovarian"}, "OVCAR-3 ovarian": {"tested_on": "OVCAR-3 ovarian"}, "OVCAR-4 ovarian": {"tested_on": "OVCAR-4 ovarian"}, "OVCAR-5 ovarian": {"tested_on": "OVCAR-5 ovarian"}, "OVCAR-8 ovarian": {"tested_on": "OVCAR-8 ovarian"}, "P388 leukemia": {"tested_on": "P388 leukemia"}, "P388/ADR leukemia": {"tested_on": "P388/ADR leukemia"}, "RPMI-8226 leukemia": {"tested_on": "RPMI-8226 leukemia"}, "RXF 393 renal": {"tested_on": "RXF 393 renal"}, "SF-268 CNS": {"tested_on": "SF-268 CNS"}, "SF-295 CNS": {"tested_on": "SF-295 CNS"}, "SF-539 CNS": {"tested_on": "SF-539 CNS"}, "SK-MEL-2 melanoma": {"tested_on": "SK-MEL-2 melanoma"}, "SK-MEL-28 melanoma": {"tested_on": "SK-MEL-28 melanoma"}, "SK-MEL-5 melanoma": {"tested_on": "SK-MEL-5 melanoma"}, "SK-OV-3 ovarian": {"tested_on": "SK-OV-3 ovarian"}, "SN12C renal": {"tested_on": "SN12C renal"}, "SN12K1 renal": {"tested_on": "SN12K1 renal"}, "SNB-19 CNS": {"tested_on": "SNB-19 CNS"}, "SNB-75 CNS": {"tested_on": "SNB-75 CNS"}, "SNB-78 CNS": {"tested_on": "SNB-78 CNS"}, "SW-620 colon": {"tested_on": "SW-620 colon"}, "U251 CNS": {"tested_on": "U251 CNS"}, "UACC-257 melanoma": {"tested_on": "UACC-257 melanoma"}, "UACC-62 melanoma": {"tested_on": "UACC-62 melanoma"}, "UO-31 renal": {"tested_on": "UO-31 renal"}, "XF 498 CNS": {"tested_on": "XF 498 CNS"}}, "note": "Several values for one entry are separate records, joined by “and”; a condition that tells them apart may be missing. Equal entries are not always repeated.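 Compound exposure: 48 hours, 5 concentrations, 96-well plates. The concentration for 50% growth inhibition is given as GI50. TGI: total growth inhibition.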", "data": [{"smiles": "Cc1ccc(N2C(=O)C3CSCN3C2=O)cc1", "note": "(stereo not given)", "values": [{"measurement": "TGI", "setting": "A498 renal", "value": "> 100", "unit": "µM"}, {"measurement": "TGI", "setting": "A549 NSCLC", "value": "> 100", "unit": "µM"}, {"measurement": "TGI", "setting": "CAKI-1 renal", "value": "> 100", "unit": "µM"}, {"measurement": "TGI", "setting": "CCRF-CEM leukemia", "value": "> 100", "unit": "µM"}, {"measurement": "TGI", "setting": "COLO 205 colon", "value": "> 100", "unit": "µM"}, {"measurement": "TGI", "setting": "DLD-1 colon", "value": "> 100", "unit": "µM"}, {"measurement": "TGI", "setting": "DMS 114 small cell lung", "value": "> 100", "unit": "µM"}, {"measurement": "TGI", "setting": "EKVX NSCLC", "value": "> 100", "unit": "µM"}, {"measurement": "TGI", "setting": "HCC-2998 colon", "value": "> 100", "unit": "µM"}, {"measurement": "GI50", "setting": "HCT-116 colon", "value": "> 100", "unit": "µM"}, {"measurement": "TGI", "setting": "HCT-116 colon", "value": "> 100 µM and 11.7 µM"}, {"measurement": "TGI", "setting": "HCT-15 colon", "value": "> 100", "unit": "µM"}, {"measurement": "TGI", "setting": "HL-60(TB) leukemia", "value": "> 100", "unit": "µM"}, {"measurement": "TGI", "setting": "HOP-18 NSCLC", "value": "> 100", "unit": "µM"}, {"measurement": "TGI", "setting": "HOP-62 NSCLC", "value": "> 100", "unit": "µM"}, {"measurement": "TGI", "setting": "HOP-92 NSCLC", "value": "> 100", "unit": "µM"}, {"measurement": "TGI", "setting": "HT29 colon", "value": "> 100", "unit": "µM"}, {"measurement": "TGI", "setting": "IGROV1 ovarian", "value": "> 100", "unit": "µM"}, {"measurement": "TGI", "setting": "K-562 leukemia", "value": "> 100", "unit": "µM"}, {"measurement": "TGI", "setting": "KM12 colon", "value": "> 100", "unit": "µM"}, {"measurement": "TGI", "setting": "LOX IMVI melanoma", "value": "> 100", "unit": "µM"}, {"measurement": "TGI", "setting": "M19-MEL melanoma", "value": "> 100", "unit": "µM"}, {"measurement": "GI50", "setting": "MALME-3M melanoma", "value": "> 100", "unit": "µM"}, {"measurement": "TGI", "setting": "MALME-3M melanoma", "value": "> 100", "unit": "µM"}, {"measurement": "TGI", "setting": "MCF7 breast", "value": "> 100", "unit": "µM"}, {"measurement": "TGI", "setting": "MOLT-4 leukemia", "value": "> 100", "unit": "µM"}, {"measurement": "TGI", "setting": "NCI-H226 lung", "value": "> 100", "unit": "µM"}, {"measurement": "TGI", "setting": "NCI-H23 lung", "value": "> 100", "unit": "µM"}, {"measurement": "TGI", "setting": "NCI-H460 lung", "value": "> 100", "unit": "µM"}, {"measurement": "TGI", "setting": "NCI-H522 lung", "value": "> 100", "unit": "µM"}, {"measurement": "TGI", "setting": "NCI/ADR-RES ovarian", "value": "> 100", "unit": "µM"}, {"measurement": "TGI", "setting": "OVCAR-3 ovarian", "value": "> 100", "unit": "µM"}, {"measurement": "TGI", "setting": "OVCAR-4 ovarian", "value": "> 100", "unit": "µM"}, {"measurement": "TGI", "setting": "OVCAR-5 ovarian", "value": "> 100", "unit": "µM"}, {"measurement": "TGI", "setting": "OVCAR-8 ovarian", "value": "> 100", "unit": "µM"}, {"measurement": "TGI", "setting": "P388 leukemia", "value": "> 100", "unit": "µM"}, {"measurement": "TGI", "setting": "P388/ADR leukemia", "value": "> 100", "unit": "µM"}, {"measurement": "TGI", "setting": "RPMI-8226 leukemia", "value": "> 100", "unit": "µM"}, {"measurement": "GI50", "setting": "RXF 393 renal", "value": "> 100", "unit": "µM"}, {"measurement": "TGI", "setting": "RXF 393 renal", "value": "> 100", "unit": "µM"}, {"measurement": "TGI", "setting": "SF-268 CNS", "value": "> 100", "unit": "µM"}, {"measurement": "TGI", "setting": "SF-295 CNS", "value": "> 100", "unit": "µM"}, {"measurement": "TGI", "setting": "SF-539 CNS", "value": "> 100", "unit": "µM"}, {"measurement": "TGI", "setting": "SK-MEL-2 melanoma", "value": "> 100", "unit": "µM"}, {"measurement": "GI50", "setting": "SK-MEL-28 melanoma", "value": "> 100", "unit": "µM"}, {"measurement": "TGI", "setting": "SK-MEL-28 melanoma", "value": "> 100 µM and 31.2 µM"}, {"measurement": "TGI", "setting": "SK-MEL-5 melanoma", "value": "> 100", "unit": "µM"}, {"measurement": "TGI", "setting": "SK-OV-3 ovarian", "value": "> 100", "unit": "µM"}, {"measurement": "TGI", "setting": "SN12C renal", "value": "> 100", "unit": "µM"}, {"measurement": "TGI", "setting": "SN12K1 renal", "value": "> 100", "unit": "µM"}, {"measurement": "TGI", "setting": "SNB-19 CNS", "value": "> 100", "unit": "µM"}, {"measurement": "TGI", "setting": "SNB-75 CNS", "value": "> 100", "unit": "µM"}, {"measurement": "GI50", "setting": "SNB-78 CNS", "value": "> 100", "unit": "µM"}, {"measurement": "TGI", "setting": "SNB-78 CNS", "value": "> 100", "unit": "µM"}, {"measurement": "TGI", "setting": "SW-620 colon", "value": "> 100", "unit": "µM"}, {"measurement": "TGI", "setting": "U251 CNS", "value": "> 100", "unit": "µM"}, {"measurement": "TGI", "setting": "UACC-257 melanoma", "value": "> 100", "unit": "µM"}, {"measurement": "TGI", "setting": "UACC-62 melanoma", "value": "> 100", "unit": "µM"}, {"measurement": "TGI", "setting": "UO-31 renal", "value": "> 100", "unit": "µM"}, {"measurement": "TGI", "setting": "XF 498 CNS", "value": "> 100", "unit": "µM"}]}]}
